Reference: the supplement of paper PMC11208160

Assay: recombinant UMI read abundance after kanamycin selection (control-corrected) (log10(CPM+1)); higher = more efficient recombination; extreme values may be limits of the assay; sequences stand for … in AGTGCAGAGAAAATCGGCCAGTTTTCTCTGCCTGCAGTCCGCATGCCGTGGGACCCCTTGGGTTCTAACCTGTTGCCTAGATTTATGCAGCGGACTGCCTTTCTCCCAAAGTGATAAACCGG…AGGTTGGTTTCACT; site = the 11-nt donor
Summary of the method: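 In Escherichia coli, a pool of donor and donor-binding-loop pairs, each with a 12-nt UMI, was tested for the IS621 bridge recombinase. Plating was on IPTG (0.07 mM) plus kanamycin, or without selection, in two replicates. Recombinant UMIs were amplified by PCR across the donor–target junction and sequenced, and counts were reported as log10(CPM+1) after averaging and control-derived scaling.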
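Further: IS621 bridge recombinase in Escherichia coli cells against a fixed T5 target plasmid.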

| Sequence | recombinant UMI read abundance (log10) |
| --- | --- |
| CCAGTGACATGGACCGGTTTTCCCGGTAATCCGTATTTGGT (site CCAGTGACTAC) | 0 |
| CCATATGCATGGACCGGTTTTCCCGGTAATCCGTATTTGGC (site CCATATGCTGC) | 0.0195 |
| CCATCGCCATGGACCGGTTTTCCCGGTAATCCGTATTTGGA (site CCATCGCCTTC) | 0.0195 |
| CCATGGTCATGGACCGGTTTTCCCGGTAATCCGTATTTGTT (site CCATGGTCTAA) | 1.06 |
| CCATTATCATGGACCGGTTTTCCCGGTAATCCGTATTTGCA (site ACAGTATCTTG) | 0 |
| CCATTATCATGGACCGGTTTTCCCGGTAATCCGTATTTGCA (site CCATTATCTTG) | 0.785 |
| CCATTCCCATGGACCGGTTTTCCCGGTAATCCGTATTTGCT (site CAATTCCCTAG) | 0 |
| CCATTCCCATGGACCGGTTTTCCCGGTAATCCGTATTTGCT (site CCATTCCCTAG) | 0 |
| CCATTCCCATGGACCGGTTTTCCCGGTAATCCGTATTTGCT (site CGATTCCCTAG) | 0 |
| CCATTCCCATGGACCGGTTTTCCCGGTAATCCGTATTTGCT (site CTATTCCCTAG) | 0 |
| CCATTCTCATGGACCGGTTTTCCCGGTAATCCGTATTTGTA (site CCATTCTCTTA) | 0.451 |
| CCCAACACATGGACCGGTTTTCCCGGTAATCCGTATTTGTA (site CCCAACACTTA) | 1.35 |
| CCCAACACATGGACCGGTTTTCCCGGTAATCCGTATTTGTA (site CCCCACACTTA) | 0.0125 |
| CCCAACACATGGACCGGTTTTCCCGGTAATCCGTATTTGTA (site CCCGACACTTA) | 0.0265 |
| CCCAACACATGGACCGGTTTTCCCGGTAATCCGTATTTGTA (site CCCTACACTTA) | 0.00893 |
| CCCAACCCATGGACCGGTTTTCCCGGTAATCCGTATTTGAT (site CCCAACCCTAT) | 0.00723 |
| CCCAAGTCATGGACCGGTTTTCCCGGTAATCCGTATTTGGG (site CCCAAGTCTCC) | 2.38 |
| CCCAATTCATGGACCGGTTTTCCCGGTAATCCGTATTTGCC (site ACCAATTCTGG) | 0 |
| CCCAATTCATGGACCGGTTTTCCCGGTAATCCGTATTTGCC (site CCCAATTCTGG) | 0.628 |
| CCCAATTCATGGACCGGTTTTCCCGGTAATCCGTATTTGCC (site GCCAATTCTGG) | 0 |
| CCCAATTCATGGACCGGTTTTCCCGGTAATCCGTATTTGCC (site TCCAATTCTGG) | 0 |
| CCCACCGCATGGACCGGTTTTCCCGGTAATCCGTATTTGCG (site ACCACCGCTCG) | 0.0127 |
| CCCACCGCATGGACCGGTTTTCCCGGTAATCCGTATTTGCG (site CCCACCGCTCG) | 0.00466 |
| CCCACCGCATGGACCGGTTTTCCCGGTAATCCGTATTTGCG (site GCCACCGCTCG) | 0.0563 |
| CCCACCGCATGGACCGGTTTTCCCGGTAATCCGTATTTGCG (site TCCACCGCTCG) | 0.00493 |

| Sequence | recombinant UMI read abundance (log10) |
| --- | --- |
| CCCACGCCATGGACCGGTTTTCCCGGTAATCCGTATTTGTA (site ACCACGCCTTA) | 0.00406 |
| CCCACGCCATGGACCGGTTTTCCCGGTAATCCGTATTTGTA (site CCCACGCCTTA) | 0.00594 |
| CCCACGCCATGGACCGGTTTTCCCGGTAATCCGTATTTGTA (site GCCACGCCTTA) | 0.00718 |
| CCCACGCCATGGACCGGTTTTCCCGGTAATCCGTATTTGTA (site TCCACGCCTTA) | 0.0141 |
| CCCAGATCATGGACCGGTTTTCCCGGTAATCCGTATTTGTC (site CCCAAATCTGA) | 0 |
| CCCAGATCATGGACCGGTTTTCCCGGTAATCCGTATTTGTC (site CCCACATCTGA) | 0 |
| CCCAGATCATGGACCGGTTTTCCCGGTAATCCGTATTTGTC (site CCCAGATCTGA) | 0 |
| CCCAGATCATGGACCGGTTTTCCCGGTAATCCGTATTTGTC (site CCCATATCTGA) | 0 |
| CCCATAACATGGACCGGTTTTCCCGGTAATCCGTATTTGTC (site CCCATAACTGA) | 0 |
| CCCATAACATGGACCGGTTTTCCCGGTAATCCGTATTTGTC (site CCCATACCTGA) | 0 |
| CCCATAACATGGACCGGTTTTCCCGGTAATCCGTATTTGTC (site CCCATAGCTGA) | 0 |
| CCCATAACATGGACCGGTTTTCCCGGTAATCCGTATTTGTC (site CCCATATCTGA) | 0 |
| CCCATACCATGGACCGGTTTTCCCGGTAATCCGTATTTGTC (site CCCATAACTGA) | 0 |
| CCCATACCATGGACCGGTTTTCCCGGTAATCCGTATTTGTC (site CCCATACCTGA) | 0 |
| CCCATACCATGGACCGGTTTTCCCGGTAATCCGTATTTGTC (site CCCATAGCTGA) | 0 |
| CCCATACCATGGACCGGTTTTCCCGGTAATCCGTATTTGTC (site CCCATATCTGA) | 0 |
| CCCATATCATGGACCGGTTTTCCCGGTAATCCGTATTTGAC (site CCCATATCTGA) | 0 |
| CCCATATCATGGACCGGTTTTCCCGGTAATCCGTATTTGAC (site CCCATATCTGC) | 0 |
| CCCATATCATGGACCGGTTTTCCCGGTAATCCGTATTTGAC (site CCCATATCTGG) | 0 |
| CCCATATCATGGACCGGTTTTCCCGGTAATCCGTATTTGAC (site CCCATATCTGT) | 0.446 |
| CCCATCTCATGGACCGGTTTTCCCGGTAATCCGTATTTGTA (site CCCATCTCTTA) | 1.97 |
| CCCCACACATGGACCGGTTTTCCCGGTAATCCGTATTTGTC (site CCCCACACTAA) | 0.316 |
| CCCCACACATGGACCGGTTTTCCCGGTAATCCGTATTTGTC (site CCCCACACTCA) | 0.235 |
| CCCCACACATGGACCGGTTTTCCCGGTAATCCGTATTTGTC (site CCCCACACTGA) | 2.39 |
| CCCCACACATGGACCGGTTTTCCCGGTAATCCGTATTTGTC (site CCCCACACTTA) | 0.335 |

| Sequence | recombinant UMI read abundance (log10) |
| --- | --- |
| CCCCACACATGGACCGGTTTTCCCGGTAATCCGTATTTGTT (site CCCCACACTAA) | 0.634 |
| CCCCACACATGGACCGGTTTTCCCGGTAATCCGTATTTGTT (site CCCCACACTCA) | 0.35 |
| CCCCACACATGGACCGGTTTTCCCGGTAATCCGTATTTGTT (site CCCCACACTGA) | 0.246 |
| CCCCACACATGGACCGGTTTTCCCGGTAATCCGTATTTGTT (site CCCCACACTTA) | 0.396 |
| CCCCGAGCATGGACCGGTTTTCCCGGTAATCCGTATTTGCA (site CCCCGAGCTTG) | 0.798 |
| CCCCGCACATGGACCGGTTTTCCCGGTAATCCGTATTTGGA (site CCCCGCACTTC) | 0.0136 |
| CCCCTATCATGGACCGGTTTTCCCGGTAATCCGTATTTGTC (site CCCATATCTGA) | 0 |
| CCCCTATCATGGACCGGTTTTCCCGGTAATCCGTATTTGTC (site CCCCTATCTGA) | 1.82 |
| CCCCTATCATGGACCGGTTTTCCCGGTAATCCGTATTTGTC (site CCCGTATCTGA) | 0 |
| CCCCTATCATGGACCGGTTTTCCCGGTAATCCGTATTTGTC (site CCCTTATCTGA) | 0 |
| CCCGACTCATGGACCGGTTTTCCCGGTAATCCGTATTTGAA (site CCCGACTCTTT) | 1.35 |
| CCCGATCCATGGACCGGTTTTCCCGGTAATCCGTATTTGCA (site CCCGATCCTTG) | 0 |
| CCCGATCCATGGACCGGTTTTCCCGGTAATCCGTATTTGCA (site CCCGCTCCTTG) | 0 |
| CCCGATCCATGGACCGGTTTTCCCGGTAATCCGTATTTGCA (site CCCGGTCCTTG) | 0 |
| CCCGATCCATGGACCGGTTTTCCCGGTAATCCGTATTTGCA (site CCCGTTCCTTG) | 0 |
| CCCGCTCCATGGACCGGTTTTCCCGGTAATCCGTATTTGCA (site CCCGATCCTTG) | 0 |
| CCCGCTCCATGGACCGGTTTTCCCGGTAATCCGTATTTGCA (site CCCGCTCCTTG) | 0 |
| CCCGCTCCATGGACCGGTTTTCCCGGTAATCCGTATTTGCA (site CCCGGTCCTTG) | 0 |
| CCCGCTCCATGGACCGGTTTTCCCGGTAATCCGTATTTGCA (site CCCGTTCCTTG) | 0 |
| CCCGGACCATGGACCGGTTTTCCCGGTAATCCGTATTTGCA (site CCCGGACCTTG) | 0 |
| CCCGGACCATGGACCGGTTTTCCCGGTAATCCGTATTTGCA (site CCCGGCCCTTG) | 0 |
| CCCGGACCATGGACCGGTTTTCCCGGTAATCCGTATTTGCA (site CCCGGGCCTTG) | 0 |
| CCCGGACCATGGACCGGTTTTCCCGGTAATCCGTATTTGCA (site CCCGGTCCTTG) | 0.0045 |
| CCCGGTCCATGGACCGGTTTTCCCGGTAATCCGTATTTGCG (site CCCGGTCCTAG) | 0 |
| CCCGGTCCATGGACCGGTTTTCCCGGTAATCCGTATTTGCG (site CCCGGTCCTCG) | 0 |
